Biological target: T1, GluA1o-γ8 (Homo sapiens, UniProt P42261+Q8WXS5)
T1 construct: expressed in transfected cells
Test: Calcium flux assay (FLIPR), inhibition of glutamate response of GluA1o-γ8 channel in HEK293 cells
Assay type: cell-based
Details: HEK293 cells stably expressing GRIA1o-CACNG8 fusion, 15 μM glutamate, pIC50 = negative log of the IC50 in molar; for IC50: read-out: GluR1-γ8 pIC50 (converted)
From the text: This assay was used to test compounds for their ability to inhibit TARP γ8 dependent AMPA receptor activity. The AMPA receptor is a non-selective cation channel activated by glutamate. Ionotropic glutamate receptors normally desensitize too rapidly to allow detectable calcium influx in a FLIPR assay (Strange et al. (2006). “Functional characterisation of homomeric ionotropic glutamate receptors GluR1-GluR6 in a fluorescence-based high throughput screening assay.” Comb Chem High Throughput Screen 9(2): 147-158). But, this desensitization is incomplete, and a substantial steady-state current remains in the sustained presence of glutamate (Cho et al. (2007). “Two families of TARP isoforms that have distinct effects on the kinetic properties of AMPA receptors and synaptic currents.” Neuron 55(6): 890-904).
An in vitro assay was used to determine the potency of test compounds as inhibitors of the glutamate response of the channel formed by GluA1o-γ8. To ensure a 1:1 stoichiometry of GluA1o and γ8 subunits in the expressed channel, a fusion of the cDNAs for GRIA1o and CACNG8 was used. Following Shi et al (2009) “The stoichiometry of AMPA receptors and TARPs varies by neuronal cell type.” Neuron 62(5): 633-640), the C-terminus of the cDNA for GRIA1o was fused to the N-terminus of the cDNA for γ8. The linker sequence was QQQQQQQQQQEFAT. Channels expressed with this construct appear to have similar properties to channels formed by co-expression of GRIA1o with an excess of CACNG8 (Shi et al. 2009). A clonal cell line in HEK293 cells stably expressing this construct, with a geneticin selection marker, was generated for use in this assay. Cell expressing the GRIA1o-CACNG8 fusion construct were grown in a monolayer in 96- or 384-well microtiter plates. They were washed with assay buffer (135 mM NaCl, 4 mM KCl, 3 mM CaCl2, 1 mM MgCl2, 5 mM glucose, 10 mM HEPES, pH 7.4, 300 mOs) using a Biotek EL405 plate washer. The cells were then loaded with a calcium-sensitive dye (Calcium-5 or Calcium-6, Molecular Devices) and the test compounds at a range of concentrations. Calcium flux following the addition of 15 μM glutamate was monitored using a Molecular Devices FLIPR Tetra.
The fluorescence in each well was normalized to the fluorescence of negative and positive control wells. The negative control wells had no added compounds, and the positive control wells had been incubated with 10 μM CP465022 (a non-subtype-selective AMPA receptor antagonist) (Lazzaro et al. (2002). “Functional characterization of CP-465,022, a selective, noncompetitive AMPA receptor antagonist.” Neuropharmacology 42(2): 143-153). The responses to glutamate as functions of the test compound concentrations were fitted to a four-parameter logistic function. The fitted parameter corresponding to the midpoint was taken to be the potency of inhibition of the compound. The data in Table 4 below illustrates the observed potentcy for the compounds described herein. pIC50 refers to the negative log of the IC50 in molar.

T1 sequence (P42261+Q8WXS5 fused): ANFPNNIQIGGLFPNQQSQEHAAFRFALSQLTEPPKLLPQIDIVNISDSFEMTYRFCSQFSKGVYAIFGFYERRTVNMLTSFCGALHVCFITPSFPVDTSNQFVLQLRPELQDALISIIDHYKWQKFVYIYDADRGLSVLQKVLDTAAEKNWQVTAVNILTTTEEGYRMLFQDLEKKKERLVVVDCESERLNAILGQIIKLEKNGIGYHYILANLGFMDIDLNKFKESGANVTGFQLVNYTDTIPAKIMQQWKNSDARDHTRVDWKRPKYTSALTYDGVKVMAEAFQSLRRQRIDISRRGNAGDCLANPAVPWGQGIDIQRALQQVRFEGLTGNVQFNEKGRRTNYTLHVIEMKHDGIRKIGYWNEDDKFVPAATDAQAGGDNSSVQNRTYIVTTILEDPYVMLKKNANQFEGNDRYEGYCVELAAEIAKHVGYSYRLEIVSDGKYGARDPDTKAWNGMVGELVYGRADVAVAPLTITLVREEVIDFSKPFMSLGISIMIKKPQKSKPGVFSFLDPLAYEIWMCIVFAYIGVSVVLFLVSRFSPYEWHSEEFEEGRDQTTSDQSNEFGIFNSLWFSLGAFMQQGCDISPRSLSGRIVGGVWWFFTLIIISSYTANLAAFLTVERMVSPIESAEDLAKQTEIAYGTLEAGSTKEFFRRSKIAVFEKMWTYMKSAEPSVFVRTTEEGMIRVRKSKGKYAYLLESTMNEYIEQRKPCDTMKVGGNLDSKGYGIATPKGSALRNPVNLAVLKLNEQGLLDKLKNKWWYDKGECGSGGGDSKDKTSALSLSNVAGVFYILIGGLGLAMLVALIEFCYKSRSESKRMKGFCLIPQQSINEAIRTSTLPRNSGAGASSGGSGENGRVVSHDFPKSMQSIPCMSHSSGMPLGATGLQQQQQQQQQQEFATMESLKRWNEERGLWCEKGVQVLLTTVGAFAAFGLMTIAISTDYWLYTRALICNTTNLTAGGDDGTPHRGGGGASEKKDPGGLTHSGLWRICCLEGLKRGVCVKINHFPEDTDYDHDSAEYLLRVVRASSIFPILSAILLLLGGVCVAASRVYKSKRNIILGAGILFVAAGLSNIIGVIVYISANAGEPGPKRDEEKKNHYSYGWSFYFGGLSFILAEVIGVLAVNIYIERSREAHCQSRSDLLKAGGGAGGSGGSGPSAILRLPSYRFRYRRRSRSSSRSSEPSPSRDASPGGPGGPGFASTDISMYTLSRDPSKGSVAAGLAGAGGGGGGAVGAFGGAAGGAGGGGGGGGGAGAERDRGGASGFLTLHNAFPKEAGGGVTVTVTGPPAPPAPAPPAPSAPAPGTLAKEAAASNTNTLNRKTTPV

IC50	SMILES	GluR1-γ8 pIC50
0.631 nM	N#Cc1cc(-c2c(Cl)cccc2OC(F)(F)F)cc2c1NC(=O)C2 [Example 175, 5-[2-Chloro-6-(trifluoromethoxy)phenyl]-2-oxo-indoline-7-carbonitrile]	–
0.2 nM	O=C1Cc2cc(-c3c(Cl)cccc3OC(F)(F)F)cc(OC(F)(F)F)c2N1 [Example 177, 5-[2-Chloro-6-(trifluoromethoxy)phenyl]-7-(trifluoromethoxy)indolin-2-one]	–
0.0501 nM	CCc1cc(-c2c(Cl)cccc2OC(F)(F)F)cc2c1NC(=O)C2 [Example 168, 5-[2-Chloro-6-(trifluoromethoxy)phenyl]-7-ethyl-indolin-2-one]	–
5.01 nM	CCc1cc(-c2c(Cl)cncc2Cl)cc2c1NC(=O)C2 [Example 174, 5-(3,5-Dichloro-4-pyridyl)-7-ethyl-indolin-2-one]	–
7.94 nM	O=C1Cc2cc(-c3c(Cl)cncc3OC(F)F)cc(Cl)c2N1 [Example 158, 7-Chloro-5-[3-chloro-5-(difluoromethoxy)-4-pyridyl]indolin-2-one]	–
0.0794 nM	N#Cc1ccc(Cl)c(-c2cc(Cl)c3c(c2)CC(=O)N3)c1OC(F)(F)F [Example 156, 4-Chloro-3-(7-chloro-2-oxo-indolin-5-yl)-2-(trifluoromethoxy)benzonitrile]	–
158 nM	Cc1ccnc(C)c1-c1cc(Cl)c2c(c1)CC(=O)N2 [Example 161, 7-Chloro-5-(2,4-dimethyl-3-pyridyl)indolin-2-one]	–
631 nM	Cc1cc(-c2c(C)ccnc2C)cc2c1NC(=O)C2 [Example 151, 5-(2,4-Dimethyl-3-pyridyl)-7-methyl-indolin-2-one]	–
6310 nM	COC1CCN(c2cccc(-c3ccc4c(c3)CC(=O)N4)c2Cl)CC1 [Example 179, 5-[2-Chloro-3-(4-methoxy-1-piperidyl)phenyl]indolin-2-one]	–
0.158 nM	CC(C)(C#N)c1cccc(Cl)c1-c1cc(Cl)c2c(c1)CC(=O)N2 [Example 155, 2-[3-Chloro-2-(7-chloro-2-oxo-indolin-5-yl)phenyl]-2-methyl-propanenitrile]	–
0.794 nM	Cc1cccc(F)c1-c1cc(Cl)c2c(c1)CC(=O)N2 [Example 166, 7-Chloro-5-(2-fluoro-6-methyl-phenyl)indolin-2-one]	–
0.2 nM	CCc1cc(-c2c(C)cccc2C(F)(F)F)cc2c1NC(=O)C2 [Example 172, 7-Ethyl-5-[2-methyl-6-(trifluoromethyl)phenyl]indolin-2-one]	–
3.16 nM	Cc1cc(-c2c(Cl)ccnc2Cl)cc2c1NC(=O)C2 [Example 152, 5-(2,4-Dichloro-3-pyridyl)-7-methyl-indolin-2-one]	–
1.58 nM	CCc1cc(-c2c(C)cccc2F)cc2c1NC(=O)C2 [Example 171, 7-Ethyl-5-(2-fluoro-6-methyl-phenyl)indolin-2-one]	–
0.0794 nM	O=C1Cc2cc(-c3c(Cl)cccc3OC(F)(F)F)cc(Cl)c2N1 [Example 153, 7-Chloro-5-[2-chloro-6-(trifluoromethoxy)phenyl]indolin-2-one]	–

Continued, compound first:

SMILES	IC50	GluR1-γ8 pIC50
Cc1cc(-c2c(C)cccc2OC(F)F)cc2c1NC(=O)C2 [Example 129, 5-[2-(Difluoromethoxy)-6-methyl-phenyl]-7-methyl-indolin-2-one]	3.16 nM	–
O=C1Cc2cc(-c3c(Cl)cccc3OC(F)(F)F)cc(F)c2N1 [Example 117, 5-(2-Chloro-6-(trifluoromethoxy)phenyl)-7-fluoroindolin-2-one]	3.16 nM	–
Cc1cc(-c2c(F)cccc2Cl)cc2c1NC(=O)C2 [Example 141, 5-(2-Chloro-6-fluoro-phenyl)-7-methyl-indolin-2-one]	2 nM	–
Cc1cc(-c2c(C)cncc2C)cc2c1NC(=O)C2 [Example 148, 5-(3,5-Dimethyl-4-pyridyl)-7-methyl-indolin-2-one]	10 nM	–
Cc1cccc(C)c1-c1ccc2c(c1)CC(=O)N2 [Example 1, 5-(2,6-Dimethylphenyl)indolin-2-one]	–	6.4
CC(C)(C#N)c1cccc(Cl)c1-c1ccc2c(c1)CC(=O)N2 [Example 81, 2-[3-Chloro-2-(2-oxoindolin-5-yl)phenyl]-2-methyl-propanenitrile]	79.4 nM	–
Cc1cc(-c2c(C)ccnc2Cl)cc2c1NC(=O)C2 [Example 149, 5-(2-Chloro-4-methyl-3-pyridyl)-7-methyl-indolin-2-one]	15.8 nM	–
Cc1cccc(Cl)c1-c1ccc2c(c1)CC(=O)N2 [Example 3, 5-(2-Chloro-6-methyl-phenyl)indolin-2-one]	100 nM	–
Cc1cccc(OC(F)F)c1-c1cc(F)c2c(c1)CC(=O)N2 [Example 122, 5-[2-(Difluoromethoxy)-6-methyl-phenyl]-7-fluoro-indolin-2-one]	15800 nM	–
Cc1cc(-c2c(Cl)cccc2OC(F)F)cc2c1NC(=O)C2 [Example 128, 5-[2-Chloro-6-(difluoromethoxy)phenyl]-7-methyl-indolin-2-one]	1 nM	–
N#Cc1ccc(Cl)c(-c2ccc3c(c2)CC(=O)N3)c1OC(F)(F)F [Example 115, 4-Chloro-3-(2-oxoindolin-5-yl)-2-(trifluoromethoxy)benzonitrile]	12.6 nM	–
Cc1cc(-c2c(Cl)cncc2Cl)cc2c1NC(=O)C2 [Example 147, 5-(3,5-Dichloro-4-pyridyl)-7-methyl-indolin-2-one]	7.94 nM	–
Cc1cc(-c2c(C)cccc2C#N)cc2c1NC(=O)C2 [Example 138, 3-Methyl-2-(7-methyl-2-oxo-indolin-5-yl)benzonitrile]	2.51 nM	–
COc1cccc(OC(F)F)c1-c1cc(C)c2c(c1)CC(=O)N2 [Example 130, 5-[2-(Difluoromethoxy)-6-methoxy-phenyl]-7-methyl-indolin-2-one]	12.6 nM	–
O=C1Cc2cc(-c3c(Cl)cccc3Cl)ccc2N1 [Example 4, 5-(2,6-Dichlorophenyl)indolin-2-one]	31.6 nM	–
COC1CCN(c2cccc(-c3cc(F)c4c(c3)CC(=O)N4)c2Cl)CC1 [Example 121, 5-(2-Chloro-3-(4-methoxypiperidin-1-yl)phenyl)-7-fluoroindolin-2-one]	> 10000 nM	–
Cc1cc(-c2c(Cl)cccc2C(C)(C)C#N)cc2c1NC(=O)C2 [Example 132, 2-[3-Chloro-2-(7-methyl-2-oxo-indolin-5-yl)phenyl]-2-methyl-propanenitrile]	0.501 nM	–
Cc1cc(-c2c(F)cccc2F)cc2c1NC(=O)C2 [Example 140, 5-(2,6-Difluorophenyl)-7-methyl-indolin-2-one]	316 nM	–
Cc1cc(-c2c(C)cccc2Cl)cc2c1NC(=O)C2 [Example 135, 5-(2-Chloro-6-methyl-phenyl)-7-methyl-indolin-2-one]	0.398 nM	–
Cc1cc(-c2c(Cl)ccc(C#N)c2OC(F)(F)F)cc2c1NC(=O)C2 [Example 133, 4-Chloro-3-(7-methyl-2-oxoindolin-5-yl)-2-(trifluoromethoxy)benzonitrile]	0.126 nM	–
Cc1cc(-c2c(F)cccc2OC(F)F)cc2c1NC(=O)C2 [Example 131, 5-[2-(Difluoromethoxy)-6-fluoro-phenyl]-7-methyl-indolin-2-one]	5.01 nM	–
Cc1cc(-c2c(Cl)cccc2OC(F)(F)F)cc2c1NC(=O)C2 [Example 127, 5-[2-Chloro-6-(trifluoromethoxy)phenyl]-7-methyl-indolin-2-one]	–	9.7
Cc1cc(-c2c(Cl)cncc2OC(F)(F)F)cc2c1NC(=O)C2 [Example 145, 5-[3-Chloro-5-(trifluoromethoxy)-4-pyridyl]-7-methyl-indolin-2-one]	3.16 nM	–
